# Target: T1, androgen receptor (Rattus norvegicus, UniProt P15207)
# T1 sequence (P15207 1-902): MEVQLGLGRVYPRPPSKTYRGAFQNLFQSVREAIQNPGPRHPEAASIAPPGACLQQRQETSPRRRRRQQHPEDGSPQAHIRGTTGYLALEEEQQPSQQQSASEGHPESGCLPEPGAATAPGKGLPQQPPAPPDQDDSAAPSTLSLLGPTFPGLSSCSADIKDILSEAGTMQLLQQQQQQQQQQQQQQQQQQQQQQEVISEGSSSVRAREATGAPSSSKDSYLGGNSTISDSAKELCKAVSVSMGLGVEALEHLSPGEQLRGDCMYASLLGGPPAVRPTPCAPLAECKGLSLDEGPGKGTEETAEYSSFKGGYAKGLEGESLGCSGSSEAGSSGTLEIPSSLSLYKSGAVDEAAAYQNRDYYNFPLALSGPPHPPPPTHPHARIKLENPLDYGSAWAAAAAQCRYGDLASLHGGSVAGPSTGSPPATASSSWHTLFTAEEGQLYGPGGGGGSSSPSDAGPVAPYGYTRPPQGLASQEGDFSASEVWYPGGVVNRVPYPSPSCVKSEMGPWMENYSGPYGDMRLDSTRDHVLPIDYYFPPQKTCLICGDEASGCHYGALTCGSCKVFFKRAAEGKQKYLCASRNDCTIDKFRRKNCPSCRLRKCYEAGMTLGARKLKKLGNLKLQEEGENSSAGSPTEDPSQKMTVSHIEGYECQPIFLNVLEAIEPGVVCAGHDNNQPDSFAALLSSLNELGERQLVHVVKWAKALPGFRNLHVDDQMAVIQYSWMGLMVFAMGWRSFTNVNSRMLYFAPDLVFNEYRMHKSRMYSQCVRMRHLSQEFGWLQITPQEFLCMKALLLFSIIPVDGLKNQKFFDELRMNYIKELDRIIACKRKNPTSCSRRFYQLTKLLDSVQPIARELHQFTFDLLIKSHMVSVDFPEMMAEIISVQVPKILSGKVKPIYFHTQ
# Assay: Binding affinity to cytoplasmic androgen (rat prostate) receptors, dextran-coated charcoal adsorption technique
# Experimental: Binding affinity to cytoplasmic androgen (rat prostate) receptors was determined by standard dextran-coated charcoal adsorption technique (Raynaud J. P. et al. J. Steroid. Biochem. 6, 615-622, 1975).
# Prostatic tissue, obtained from both adrenalectomized and orchidectomized Sprague-Dawley rats, was homogenized (1:10 weight:vol ratio) in 10 mM Tris-HCl PH 7.4, containing 1.5 nM EDTA and 1 mM dithiothreitol, in motor driven tissue grinders. The homogenate was centrifuged at 105,000×g for 1 h at 2° C. Aliquots of cytosol (0.2 ml) were incubated for 2 h at 0° C. with various concentrations of the test compounds, in duplicate, and a fixed amount of [^3 H]-5α-dihydrotestosterone (DHT, final concentration 1 nM in 0.4 ml of incubation volume). Then, free radioactivity was adsorbed on 0.2 ml of dextran-coated charcoal suspension and after centrifugation at 1,500×g for 10 min, the bound radioactivity in the supernatant was determined by liquid scintillation in RIaluma.
structure (smiles),measurement,setting,value
"C=C1C[C@H]2[C@@H]3CC[C@H](O)[C@@]3(C)CC[C@@H]2[C@@]2(C)C=CC(=O)C=C12 [6-methylenandrosta-1,4-diene-17β-ol-3-one]",affinity to the androgen receptor (in words),,very high affinity
same,times more potent than the correspondent 17-cheto-derivative (androgen receptor affinity),"versus 6-methylenandrosta-1,4-diene-3,17-dione",76 times

# Reference: US4873233A, “17-Substituted androsta-1,4-dien-3-one derivatives” (Farmitalia Carlo Erba S.p.a., priority 1987, dated 1989)
